Experimental data: article PMC6225122 (2018)
≈ marks a conversion by molar mass, not a printed value.

Columns and labels:
[1] = system: aptamer 28 (DNA, aptamer) ACGCATAGGATGCAACAACGCGAATGCCACCAATTCGTGCTTGTCGTGTCCTATGCGT; assay: circular dichroism; details: binding buffer: 8 g/L NaCl, 0.2 g/L KCl, 0.1 g/L MgCl2·6H2O, 0.1 g/L CaCl2; 1 μM aptamer, 10 μM CBL, room temperature, 30 min
[2] = system: aptamer 47 (DNA, aptamer) ACGCATAGGTCATGCCAAGCTGTACACCGTCCTGGCCTGGTTGGGATGTCCTATGCGT; assay: circular dichroism; details: binding buffer: 8 g/L NaCl, 0.2 g/L KCl, 0.1 g/L MgCl2·6H2O, 0.1 g/L CaCl2; 1 μM aptamer, 10 μM CBL, room temperature, 30 min
[3] = system: aptamer 64 (DNA, aptamer) ACGCATAGGTACACCACATCGGATCGTAATGCGTATGTGACTCAGTGTGCCTATGCGT; assay: circular dichroism; details: binding buffer: 8 g/L NaCl, 0.2 g/L KCl, 0.1 g/L MgCl2·6H2O, 0.1 g/L CaCl2; 1 μM aptamer, 10 μM CBL, room temperature, 30 min
[4] = system: aptamer 78 (DNA, aptamer) ACGCATAGGGTACGCCACAGATCGACCTCTGGTTGGTCCTGTTGTGTGGCCTATGCGT; assay: circular dichroism; details: binding buffer: 8 g/L NaCl, 0.2 g/L KCl, 0.1 g/L MgCl2·6H2O, 0.1 g/L CaCl2; 1 μM aptamer, 10 μM CBL, room temperature, 30 min
[5] = system: aptamer 132 (DNA, aptamer) ACGCATAGGGACCATGCGCAGTGAACTTGGTTCTTTGTGCTCATGTGTGCCTATGCGT; assay: circular dichroism; details: binding buffer: 8 g/L NaCl, 0.2 g/L KCl, 0.1 g/L MgCl2·6H2O, 0.1 g/L CaCl2; 1 μM aptamer, 10 μM CBL, room temperature, 30 min
[6] = system: aptamer 154 (DNA, aptamer) ACGCATAGGGCATCACACATGTCCTTGCCATTGCTGACTTGTTTGGTGTCCTATGCGT; assay: circular dichroism; details: binding buffer: 8 g/L NaCl, 0.2 g/L KCl, 0.1 g/L MgCl2·6H2O, 0.1 g/L CaCl2; 1 μM aptamer, 10 μM CBL, room temperature, 30 min
[7] = system: aptamer 28 (DNA, aptamer) ACGCATAGGATGCAACAACGCGAATGCCACCAATTCGTGCTTGTCGTGTCCTATGCGT; assay: AuNP colorimetric titration (A520); details: 0.9 M NaCl (10 µL) added after binding; aptamer 0-1600 nM titrated against 1 μg/mL CBL, water, 30 min, room temperature
[8] = system: aptamer 47 (DNA, aptamer) ACGCATAGGTCATGCCAAGCTGTACACCGTCCTGGCCTGGTTGGGATGTCCTATGCGT; assay: AuNP colorimetric titration (A520); details: 0.9 M NaCl (10 µL) added after binding; aptamer 0-1600 nM titrated against 1 μg/mL CBL, water, 30 min, room temperature
[9] = system: aptamer 64 (DNA, aptamer) ACGCATAGGTACACCACATCGGATCGTAATGCGTATGTGACTCAGTGTGCCTATGCGT; assay: AuNP colorimetric titration (A520); details: 0.9 M NaCl (10 µL) added after binding; aptamer 0-1600 nM titrated against 1 μg/mL CBL, water, 30 min, room temperature
[10] = system: aptamer 78 (DNA, aptamer) ACGCATAGGGTACGCCACAGATCGACCTCTGGTTGGTCCTGTTGTGTGGCCTATGCGT; assay: AuNP colorimetric titration (A520); details: 0.9 M NaCl (10 µL) added after binding; aptamer 0-1600 nM titrated against 1 μg/mL CBL, water, 30 min, room temperature
[11] = system: aptamer 132 (DNA, aptamer) ACGCATAGGGACCATGCGCAGTGAACTTGGTTCTTTGTGCTCATGTGTGCCTATGCGT; assay: AuNP colorimetric titration (A520); details: 0.9 M NaCl (10 µL) added after binding; aptamer 0-1600 nM titrated against 1 μg/mL CBL, water, 30 min, room temperature
[12] = system: aptamer 154 (DNA, aptamer) ACGCATAGGGCATCACACATGTCCTTGCCATTGCTGACTTGTTTGGTGTCCTATGCGT; assay: AuNP colorimetric titration (A520); details: 0.9 M NaCl (10 µL) added after binding; aptamer 0-1600 nM titrated against 1 μg/mL CBL, water, 30 min, room temperature
[13] = system: 5′-biotin aptamer 47 (DNA, aptamer) ACGCATAGGTCATGCCAAGCTGTACACCGTCCTGGCCTGGTTGGGATGTCCTATGCGT; assay: indirect competitive enzyme-linked aptamer assay (ic-ELAA); details: binding buffer: 8 g/L NaCl, 0.2 g/L KCl, 0.1 g/L MgCl2·6H2O, 0.1 g/L CaCl2; competition with coated CBL-BSA; 1 μM aptamer (50 μL), 37 °C, 1 h
[14] = system: aptamer 28 (DNA, aptamer) ACGCATAGGATGCAACAACGCGAATGCCACCAATTCGTGCTTGTCGTGTCCTATGCGT; assay: AuNP colorimetric specificity assay (A620/A520); details: 0.9 M NaCl added after binding; 1 μg/mL compound, 0.4 μM aptamer, room temperature, 30 min
[15] = system: aptamer 47 (DNA, aptamer) ACGCATAGGTCATGCCAAGCTGTACACCGTCCTGGCCTGGTTGGGATGTCCTATGCGT; assay: AuNP colorimetric specificity assay (A620/A520); details: 0.9 M NaCl added after binding; 1 μg/mL compound, 0.4 μM aptamer, room temperature, 30 min
[16] = system: aptamer 64 (DNA, aptamer) ACGCATAGGTACACCACATCGGATCGTAATGCGTATGTGACTCAGTGTGCCTATGCGT; assay: AuNP colorimetric specificity assay (A620/A520); details: 0.9 M NaCl added after binding; 1 μg/mL compound, 0.4 μM aptamer, room temperature, 30 min
[17] = system: aptamer 78 (DNA, aptamer) ACGCATAGGGTACGCCACAGATCGACCTCTGGTTGGTCCTGTTGTGTGGCCTATGCGT; assay: AuNP colorimetric specificity assay (A620/A520); details: 0.9 M NaCl added after binding; 1 μg/mL compound, 0.4 μM aptamer, room temperature, 30 min
[18] = system: aptamer 132 (DNA, aptamer) ACGCATAGGGACCATGCGCAGTGAACTTGGTTCTTTGTGCTCATGTGTGCCTATGCGT; assay: AuNP colorimetric specificity assay (A620/A520); details: 0.9 M NaCl added after binding; 1 μg/mL compound, 0.4 μM aptamer, room temperature, 30 min
[19] = system: aptamer 154 (DNA, aptamer) ACGCATAGGGCATCACACATGTCCTTGCCATTGCTGACTTGTTTGGTGTCCTATGCGT; assay: AuNP colorimetric specificity assay (A620/A520); details: 0.9 M NaCl added after binding; 1 μg/mL compound, 0.4 μM aptamer, room temperature, 30 min

| SMILES | binding [1] | binding [2] | binding [3] | binding [4] | binding [5] | binding [6] | Kd [7] [µM] | Kd [8] [µM] | Kd [9] [µM] | Kd [10] [µM] | Kd [11] [µM] | Kd [12] [µM] | IC50 [13] [ng/mL] | binding [14] | binding [15] | binding [16] | binding [17] | binding [18] | binding [19] |
| --- | --- | --- | --- | --- | --- | --- | --- | --- | --- | --- | --- | --- | --- | --- | --- | --- | --- | --- | --- |
| CC(C)(C)NCC(O)c1cc(Cl)c(N)c(Cl)c1 (stereo not shown) | yes | yes | yes | yes | yes | yes | 0.321 ± 0.1045 | 0.04217 ± 0.00898 | 0.1233 ± 0.01428 | 0.2011 ± 0.04242 | 0.2216 ± 0.04187 | 0.2688 ± 0.04043 | 5.44 ± 0.01 (≈ 0.0196 µM) | – | – | – | – | – | – |
| CC(C)(C)NCC(O)c1cc(O)cc(O)c1 (stereo not shown) | – | – | – | – | – | – | – | – | – | – | – | – | – | no | no | no | no | no | no |
| CC(C)(C)NCC(O)c1ccc(O)c(CO)c1 (stereo not shown) | – | – | – | – | – | – | – | – | – | – | – | – | – | no | no | no | no | no | no |
| CC(CCc1ccc(O)cc1)NCC(O)c1ccc(O)cc1 (stereo not shown) | – | – | – | – | – | – | – | – | – | – | – | – | – | no | no | no | no | no | no |
